Assay results: patent US11919901B2 (Syndax Pharmaceuticals, Inc., priority 2021, dated 2024)
pIC50: −log10 of the molar value.

Test system: MV4-11 cells
Test: Cell proliferation assay MV4;11 (CellTiter-Glo, 72 hours)
Format: cell-based
Settings: Homo sapiens; MV4;11 leukemia cell line, 72 hours; read-out: MV4; 11 IC50
Method in brief: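 Luminescent CellTiter-Glo readout after 72 h culture, 37 °C, 5% CO2, expressed relative to vehicle-treated wells, with maximal inhibition taken at the highest dose. MLL-rearranged MV4-11 leukemia cells; final compound range 0.632 to 2000 nM in eight steps.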

Work on `C[C@@H]1COC[C@H](C)N1C(=O)c1cc(F)ccc1Oc1cncnc1N1CC2(CCN(C[C@@H]3CC[C@@H](NS(=O)(=O)N4CCC4)CO3)CC2)C1` [Example 161, N-((3R,6S)-6-((2-(5-(2-((3R,5S)-3,5-Dimethylmorpholine-4-carbonyl)-4-fluorophenoxy)pyrimidin-4-yl)-2,7-diazaspiro[3.5]nonan-7-yl)methyl)tetrahydro-2H-pyran-3-yl)azetidine-1-sulfonamide] yielded a pIC50 of over 7.00.
With `C[C@@H]1COC[C@H](C)N1C(=O)c1cc(F)ccc1Oc1cncnc1N1CC2(CCN(C[C@@H]3CC[C@@H](NS(=O)(=O)NCC(F)(F)F)CO3)CC2)C1` [Example 162, {[(3R,6S)-6-{[2-(5-{2-[(3R,5S)-3,5-Dimethylmorpholine-4-carbonyl]-4-fluorophenoxy}pyrimidin-4-yl)-2,7-diazaspiro[3.5]nonan-7-yl]methyl}oxan-3-yl]sulfamoyl}(2,2,2-trifluoroethyl)amine] the pIC50 was over 7.00.
With `C[C@@H]1COC[C@H](C)N1C(=O)c1cc(F)ccc1Oc1cncnc1N1CC2(CCN(C[C@@H]3CC[C@@H](NS(=O)(=O)NC4CC4)CO3)CC2)C1` [Example 163, N-[(3R,6S)-6-{[2-(5-{2-[(3R,5S)-3,5-Dimethylmorpholine-4-carbonyl]-4-fluorophenoxy}pyrimidin-4-yl)-2,7-diazaspiro[3.5]nonan-7-yl]methyl}oxan-3-yl](cyclopropylamino)sulfonamide] the pIC50 was over 7.00.
For `CC(C)N(C(=O)c1cc(F)ccc1Oc1cncnc1N1CC2(CCN(C[C@@H]3CC[C@@H](NS(=O)(=O)C4CC4)CO3)CC2)C1)[C@@H]1CCOC1` [Example 164, 2-((4-(7-(((2S,5R)-5-(Cyclopropanesulfonamido)tetrahydro-2H-pyran-2-yl)methyl)-2,7-diazaspiro[3.5]nonan-2-yl)pyrimidin-5-yl)oxy)-5-fluoro-N-isopropyl-N-((R)-tetrahydrofuran-3-yl)benzamide], the pIC50 was over 7.00.
Work on `CCN(CC)S(=O)(=O)N[C@@H]1CC[C@@H](CN2CCC3(CC2)CN(c2ncncc2Oc2ccc(F)cc2C(=O)N(C(C)C)[C@@H]2CCOC2)C3)OC1` [Example 165, 2-((4-(7-(((2S,5R)-5-((N,N-Diethylsulfamoyl)amino)tetrahydro-2H-pyran-2-yl)methyl)-2,7-diazaspiro[3.5]nonan-2-yl)pyrimidin-5-yl)oxy)-5-fluoro-N-isopropyl-N-((R)-tetrahydrofuran-3-yl)benzamide] yielded a pIC50 of over 7.00.
In the case of `CC(C)N(C(=O)c1cc(F)ccc1Oc1cncnc1N1CC2(CCN(C[C@@H]3CC[C@@H](NS(C)(=O)=O)CO3)CC2)C1)[C@@H]1CCOC1` [Example 166, 5-Fluoro-N-isopropyl-2-((4-(7-(((2S,5R)-5-(methylsulfonamido)tetrahydro-2H-pyran-2-yl)methyl)-2,7-diazaspiro[3.5]nonan-2-yl)pyrimidin-5-yl)oxy)-N-((R)-tetrahydrofuran-3-yl)benzamide], the pIC50 was over 7.00.
`CC(C)N(C(=O)c1cc(F)ccc1Oc1cncnc1N1CC2(CCN(C[C@@H]3CC[C@@H](NS(=O)(=O)N(C)C)CO3)CC2)C1)[C@@H]1CCOC1` [Example 167, 2-((4-(7-(((2S,5R)-5-((N,N-Dimethylsulfamoyl)amino)tetrahydro-2H-pyran-2-yl)methyl)-2,7-diazaspiro[3.5]nonan-2-yl)pyrimidin-5-yl)oxy)-5-fluoro-N-isopropyl-N-((R)-tetrahydrofuran-3-yl)benzamide] showed a pIC50 of over 7.00.
Work on `CC(C)N(C(=O)c1cc(F)ccc1Oc1cncnc1N1CC2(CCN(C[C@@H]3CC[C@@H](NS(=O)(=O)N4CCC4)CO3)CC2)C1)[C@@H]1CCOC1` [Example 168, 2-((4-(7-(((2S,5R)-5-(Azetidine-1-sulfonamido)tetrahydro-2H-pyran-2-yl)methyl)-2,7-diazaspiro[3.5]nonan-2-yl)pyrimidin-5-yl)oxy)-5-fluoro-N-isopropyl-N-((R)-tetrahydrofuran-3-yl)benzamide] yielded a pIC50 of over 7.00.
For `CC(C)N(C(=O)c1cc(F)ccc1Oc1cncnc1N1CC2(CCN(C[C@@H]3CC[C@@H](NS(=O)(=O)N4CCCC4)CO3)CC2)C1)[C@@H]1CCOC1` [Example 169, 5-Fluoro-N-isopropyl-2-((4-(7-(((2S,5R)-5-(pyrrolidine-1-sulfonamido)tetrahydro-2H-pyran-2-yl)methyl)-2,7-diazaspiro[3.5]nonan-2-yl)pyrimidin-5-yl)oxy)-N-((R)-tetrahydrofuran-3-yl)benzamide], the pIC50 was over 7.00.
With `CCN(C)S(=O)(=O)N[C@@H]1CC[C@@H](CN2CCC3(CC2)CN(c2ncncc2Oc2ccc(F)cc2C(=O)N(C(C)C)[C@@H]2CCOC2)C3)OC1` [Example 170, 2-((4-(7-(((2S,5R)-5-((N-Ethyl-N-methylsulfamoyl)amino)tetrahydro-2H-pyran-2-yl)methyl)-2,7-diazaspiro[3.5]nonan-2-yl)pyrimidin-5-yl)oxy)-5-fluoro-N-isopropyl-N-((R)-tetrahydrofuran-3-yl)benzamide] the pIC50 was over 7.00.
For `CC(C)N(C(=O)c1cc(F)ccc1Oc1cncnc1N1CC2(CCN(C[C@@H]3CC[C@@H](NS(=O)(=O)NCC(F)(F)F)CO3)CC2)C1)[C@@H]1CCOC1` [Example 171, 5-Fluoro-N-isopropyl-N-((R)-tetrahydrofuran-3-yl)-2-((4-(7-(((2S,5R)-5-((N-(2,2,2-trifluoroethyl)sulfamoyl)amino)tetrahydro-2H-pyran-2-yl)methyl)-2,7-diazaspiro[3.5]nonan-2-yl)pyrimidin-5-yl)oxy)benzamide], the pIC50 was over 7.00.
`CCNS(=O)(=O)N[C@@H]1CC[C@@H](CN2CCC3(CC2)CN(c2ncncc2Oc2ccc(F)cc2C(=O)N(C(C)C)[C@@H]2CCOC2)C3)OC1` [Example 172, 2-((4-(7-(((2S,5R)-5-((N-ethylsulfamoyl)amino)tetrahydro-2H-pyran-2-yl)methyl)-2,7-diazaspiro[3.5]nonan-2-yl)pyrimidin-5-yl)oxy)-5-fluoro-N-isopropyl-N-((R)-tetrahydrofuran-3-yl)benzamide] showed a pIC50 of over 7.00.
For `CC(C)N(C(=O)c1cc(F)ccc1Oc1cncnc1N1CC2(CCN(C[C@@H]3CC[C@@H](NS(C)(=O)=O)CO3)CC2)C1)[C@H]1CCOC1` [Example 173, 5-Fluoro-N-isopropyl-2-((4-(7-(((2S,5R)-5-(methylsulfonamido)tetrahydro-2H-pyran-2-yl)methyl)-2,7-diazaspiro[3.5]nonan-2-yl)pyrimidin-5-yl)oxy)-N-((S)-tetrahydrofuran-3-yl)benzamide], the pIC50 was over 7.00.
With `CC(C)N(C(=O)c1cc(F)ccc1Oc1cncnc1N1CC2(CCN(C[C@@H]3CC[C@@H](NS(=O)(=O)C(C)C)CO3)CC2)C1)[C@H]1CCOC1` [Example 174, 5-Fluoro-N-isopropyl-2-((4-(7-(((2S,5R)-5-((1-methylethyl)sulfonamido)tetrahydro-2H-pyran-2-yl)methyl)-2,7-diazaspiro[3.5]nonan-2-yl)pyrimidin-5-yl)oxy)-N-((S)-tetrahydrofuran-3-yl)benzamide] the pIC50 was over 7.00.
For `CCN(CC)S(=O)(=O)N[C@@H]1CC[C@@H](CN2CCC3(CC2)CN(c2ncncc2Oc2ccc(F)cc2C(=O)N(C(C)C)[C@H]2CCOC2)C3)OC1` [Example 175, 2-((4-(7-(((2S,5R)-5-((N,N-Diethylsulfamoyl)amino)tetrahydro-2H-pyran-2-yl)methyl)-2,7-diazaspiro[3.5]nonan-2-yl)pyrimidin-5-yl)oxy)-5-fluoro-N-isopropyl-N-((S)-tetrahydrofuran-3-yl)benzamide], the pIC50 was over 7.00.
`CC(C)N(C(=O)c1cc(F)ccc1Oc1cncnc1N1CC2(CCN(C[C@@H]3CC[C@@H](NS(=O)(=O)C4CC4)CO3)CC2)C1)[C@H]1CCOC1` [Example 176, 2-((4-(7-(((2S,5R)-5-(Cyclopropanesulfonamido)tetrahydro-2H-pyran-2-yl)methyl)-2,7-diazaspiro[3.5]nonan-2-yl)pyrimidin-5-yl)oxy)-5-fluoro-N-isopropyl-N-((S)-tetrahydrofuran-3-yl)benzamide] gave a pIC50 of over 7.00.
In the case of `CC(C)N(C(=O)c1cc(F)ccc1Oc1cncnc1N1CC2(CCN(C[C@@H]3CC[C@@H](NS(=O)(=O)N(C)C)CO3)CC2)C1)[C@H]1CCOC1` [Example 177, 2-((4-(7-(((2S,5R)-5-((N,N-Dimethylsulfamoyl)amino)tetrahydro-2H-pyran-2-yl)methyl)-2,7-diazaspiro[3.5]nonan-2-yl)pyrimidin-5-yl)oxy)-5-fluoro-N-isopropyl-N-((S)-tetrahydrofuran-3-yl)benzamide], the pIC50 was over 7.00.
`CC(C)N(C(=O)c1cc(F)ccc1Oc1cncnc1N1CC2(CCN(C[C@@H]3CC[C@@H](NS(=O)(=O)N4CCCC4)CO3)CC2)C1)[C@H]1CCOC1` [Example 178, 5-Fluoro-N-isopropyl-2-((4-(7-(((2S,5R)-5-(pyrrolidine-1-sulfonamido)tetrahydro-2H-pyran-2-yl)methyl)-2,7-diazaspiro[3.5]nonan-2-yl)pyrimidin-5-yl)oxy)-N-((S)-tetrahydrofuran-3-yl)benzamide] was tested, and the pIC50 was over 7.00.
`CCN(C)S(=O)(=O)N[C@@H]1CC[C@@H](CN2CCC3(CC2)CN(c2ncncc2Oc2ccc(F)cc2C(=O)N(C(C)C)[C@H]2CCOC2)C3)OC1` [Example 179, 2-((4-(7-(((2S,5R)-5-((N-Ethyl-N-methylsulfamoyl)amino)tetrahydro-2H-pyran-2-yl)methyl)-2,7-diazaspiro[3.5]nonan-2-yl)pyrimidin-5-yl)oxy)-5-fluoro-N-isopropyl-N-((S)-tetrahydrofuran-3-yl)benzamide] gave a pIC50 of over 7.00.
For `CCNS(=O)(=O)N[C@@H]1CC[C@@H](CN2CCC3(CC2)CN(c2ncncc2Oc2ccc(F)cc2C(=O)N(C(C)C)[C@H]2CCOC2)C3)OC1` [Example 180, 2-((4-(7-(((2S,5R)-5-((N-Ethylsulfamoyl)amino)tetrahydro-2H-pyran-2-yl)methyl)-2,7-diazaspiro[3.5]nonan-2-yl)pyrimidin-5-yl)oxy)-5-fluoro-N-isopropyl-N-((S)-tetrahydrofuran-3-yl)benzamide], the pIC50 was over 7.00.
For `CC(C)N(CC#N)C(=O)c1cc(F)ccc1Oc1cncnc1N1CC2(CCN(C[C@@H]3CC[C@@H](NS(=O)(=O)N(C)C)CO3)CC2)C1` [Example 181, N-(Cyanomethyl)-2-((4-(7-(((2S,5R)-5-((N,N-dimethylsulfamoyl)amino)tetrahydro-2H-pyran-2-yl)methyl)-2,7-diazaspiro[3.5]nonan-2-yl)pyrimidin-5-yl)oxy)-5-fluoro-N-isopropylbenzamide], the pIC50 was over 7.00.
